From patent US11447466B2, “Substituted indole compounds useful as inhibitors of TLR7/8/9” (BRISTOL-MYERS SQUIBB COMPANY, priority 2017, dated 2022)

Experiments:
Format in all cases: cell-based
human TLR7 = target: T1, human TLR7 (Homo sapiens, UniProt Q9NYK1); assay: TLR7 inhibition reporter assay (HEK-Blue SEAP reporter, gardiquimod stimulation); conditions: HEK-Blue cells overexpressing human TLR7, SEAP reporter, gardiquimod 7.5 μM, 22 hour incubation
T1 construct: host or cells: HEK-Blue cells
T1 sequence (Q9NYK1 27-1049): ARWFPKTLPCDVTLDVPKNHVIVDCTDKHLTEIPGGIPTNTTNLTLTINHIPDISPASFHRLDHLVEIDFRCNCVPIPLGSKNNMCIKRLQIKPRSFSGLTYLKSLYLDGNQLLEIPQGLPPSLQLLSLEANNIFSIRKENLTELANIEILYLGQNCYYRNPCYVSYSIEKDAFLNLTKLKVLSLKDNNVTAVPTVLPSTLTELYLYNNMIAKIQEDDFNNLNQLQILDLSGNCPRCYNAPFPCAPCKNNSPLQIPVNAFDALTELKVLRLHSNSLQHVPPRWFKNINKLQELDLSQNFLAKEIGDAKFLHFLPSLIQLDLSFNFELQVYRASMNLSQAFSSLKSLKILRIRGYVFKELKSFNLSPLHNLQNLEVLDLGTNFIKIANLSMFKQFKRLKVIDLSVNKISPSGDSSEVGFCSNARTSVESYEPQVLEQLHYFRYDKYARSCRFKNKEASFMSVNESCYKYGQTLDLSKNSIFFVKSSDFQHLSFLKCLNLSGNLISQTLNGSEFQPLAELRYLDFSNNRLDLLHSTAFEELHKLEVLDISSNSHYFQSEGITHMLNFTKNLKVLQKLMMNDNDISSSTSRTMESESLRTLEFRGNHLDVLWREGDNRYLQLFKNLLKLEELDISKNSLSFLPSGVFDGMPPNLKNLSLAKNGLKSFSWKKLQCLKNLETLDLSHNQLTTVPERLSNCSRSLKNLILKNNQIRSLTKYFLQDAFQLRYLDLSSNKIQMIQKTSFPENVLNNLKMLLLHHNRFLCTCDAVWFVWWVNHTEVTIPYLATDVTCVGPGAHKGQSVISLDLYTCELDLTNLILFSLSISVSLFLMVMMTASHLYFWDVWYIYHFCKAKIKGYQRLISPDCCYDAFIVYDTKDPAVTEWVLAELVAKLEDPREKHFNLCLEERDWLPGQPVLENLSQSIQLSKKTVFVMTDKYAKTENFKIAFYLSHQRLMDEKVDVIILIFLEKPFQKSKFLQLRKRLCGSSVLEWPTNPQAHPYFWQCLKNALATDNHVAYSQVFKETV
Method in brief: (§1)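 Dose–response from 0.05 nM to 50 μM was run in HEK-Blue human TLR7, TLR8 and TLR9 reporter cells. After 30 min at room temperature with compound, ligand was added (TLR7 gardiquimod 7.5 μM; TLR8 R848 15.9 μM; TLR9 ODN2006 5 nM) and SEAP measured next day, at 22 h.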

human TLR8 = target: T2, human TLR8 (Homo sapiens, UniProt Q9NR97); assay: TLR8 inhibition reporter assay (HEK-Blue SEAP reporter, R848 stimulation); conditions: HEK-Blue cells overexpressing human TLR8, SEAP reporter, R848 15.9 μM, 22 hour incubation
T2 construct: host or cells: HEK-Blue cells
T2 sequence (Q9NR97 27-1041): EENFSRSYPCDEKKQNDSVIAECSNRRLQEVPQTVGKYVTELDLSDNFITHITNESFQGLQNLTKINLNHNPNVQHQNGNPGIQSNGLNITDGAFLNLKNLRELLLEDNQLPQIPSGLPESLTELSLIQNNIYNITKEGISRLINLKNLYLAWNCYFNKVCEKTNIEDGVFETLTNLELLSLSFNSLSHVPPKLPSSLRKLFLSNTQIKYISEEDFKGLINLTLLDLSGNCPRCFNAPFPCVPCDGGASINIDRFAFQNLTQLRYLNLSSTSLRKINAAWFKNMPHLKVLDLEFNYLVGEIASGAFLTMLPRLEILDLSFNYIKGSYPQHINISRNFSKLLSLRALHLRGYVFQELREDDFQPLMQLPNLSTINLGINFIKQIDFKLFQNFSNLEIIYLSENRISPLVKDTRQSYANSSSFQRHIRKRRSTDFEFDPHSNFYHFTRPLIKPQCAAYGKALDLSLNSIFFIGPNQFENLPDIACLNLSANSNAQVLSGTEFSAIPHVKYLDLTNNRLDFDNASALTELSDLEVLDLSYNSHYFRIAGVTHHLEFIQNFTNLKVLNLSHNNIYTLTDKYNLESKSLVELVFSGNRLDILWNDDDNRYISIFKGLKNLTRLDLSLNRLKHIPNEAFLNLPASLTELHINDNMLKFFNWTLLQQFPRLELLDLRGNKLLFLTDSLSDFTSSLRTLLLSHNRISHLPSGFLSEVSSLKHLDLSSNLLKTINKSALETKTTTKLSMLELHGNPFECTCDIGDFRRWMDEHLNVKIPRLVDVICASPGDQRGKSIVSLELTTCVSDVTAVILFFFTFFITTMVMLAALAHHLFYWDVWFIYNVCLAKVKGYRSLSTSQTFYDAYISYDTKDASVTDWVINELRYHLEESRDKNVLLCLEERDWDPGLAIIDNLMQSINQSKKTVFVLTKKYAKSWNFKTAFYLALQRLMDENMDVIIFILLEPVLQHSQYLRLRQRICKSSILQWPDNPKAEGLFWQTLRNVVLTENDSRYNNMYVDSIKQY
Method in brief: as §1

human TLR9 = target: T3, human TLR9 (Homo sapiens, UniProt Q9NR96); assay: TLR9 inhibition reporter assay (HEK-Blue SEAP reporter, ODN2006 stimulation); conditions: HEK-Blue cells overexpressing human TLR9, SEAP reporter, ODN2006 5 nM, 22 hour incubation
T3 construct: host or cells: HEK-Blue cells
T3 sequence (Q9NR96 26-1032): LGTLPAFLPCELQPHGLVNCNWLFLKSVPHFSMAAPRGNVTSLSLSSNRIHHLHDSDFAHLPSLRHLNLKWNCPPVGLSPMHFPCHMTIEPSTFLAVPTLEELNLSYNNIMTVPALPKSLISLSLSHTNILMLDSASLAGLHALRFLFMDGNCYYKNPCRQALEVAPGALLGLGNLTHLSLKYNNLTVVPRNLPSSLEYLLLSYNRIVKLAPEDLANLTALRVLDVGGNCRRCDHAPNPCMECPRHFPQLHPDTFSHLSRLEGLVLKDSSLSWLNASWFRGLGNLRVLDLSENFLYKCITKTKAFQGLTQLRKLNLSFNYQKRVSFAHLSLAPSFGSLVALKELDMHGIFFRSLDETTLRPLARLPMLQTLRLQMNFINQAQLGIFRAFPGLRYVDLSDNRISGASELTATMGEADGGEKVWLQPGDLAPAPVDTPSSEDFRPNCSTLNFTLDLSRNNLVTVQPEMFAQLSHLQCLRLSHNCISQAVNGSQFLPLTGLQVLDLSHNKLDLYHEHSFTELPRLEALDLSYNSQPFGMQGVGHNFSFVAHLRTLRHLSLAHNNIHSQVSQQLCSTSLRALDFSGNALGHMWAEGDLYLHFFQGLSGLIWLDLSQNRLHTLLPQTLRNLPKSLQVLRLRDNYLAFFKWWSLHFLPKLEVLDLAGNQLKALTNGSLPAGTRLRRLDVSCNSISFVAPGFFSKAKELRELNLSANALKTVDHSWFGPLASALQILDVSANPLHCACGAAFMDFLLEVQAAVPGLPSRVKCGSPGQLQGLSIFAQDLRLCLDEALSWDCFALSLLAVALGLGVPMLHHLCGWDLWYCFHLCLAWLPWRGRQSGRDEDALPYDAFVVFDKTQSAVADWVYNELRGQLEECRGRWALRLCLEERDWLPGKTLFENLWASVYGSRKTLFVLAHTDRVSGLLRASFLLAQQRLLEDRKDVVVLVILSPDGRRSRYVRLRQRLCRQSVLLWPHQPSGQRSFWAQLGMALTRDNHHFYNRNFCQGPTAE
Method in brief: as §1

Row | SMILES | IC50 (human TLR7) [nM] | IC50 (human TLR8) [nM] | IC50 (human TLR9) [µM]
1 | CC(C)c1c(-c2cc(C(=O)N3CCCC3)c(=O)n(C)c2)[nH]c2ccc(C3CCNCC3)cc12 [Example 69, 5-(3-isopropyl-5-(piperidin-4-yl)-1H-indol-2-yl)-1-methyl-3-(pyrrolidine-1-carbonyl) pyridin-2(1H)-one] | 333 | 180 | ≥ 50
2 | Cc1cc(-c2[nH]c3ccc(C4CCN(CCCO)CC4)cc3c2C(C)C)cn(C)c1=O [Example 85, 5-(5-(1-(3-hydroxypropyl)piperidin-4-yl)-3-isopropyl-1H-indol-2-yl)-1,3-dimethylpyridin-2(1H)-one] | 2.2 | 4.6 | 8.45
3 | CC(C)c1c(-c2cc(-c3cncnc3)c(=O)n(C)c2)[nH]c2ccc(C3CCN(CCCC(F)(F)F)CC3)cc12 [Example 104, 5-(3-isopropyl-5-(1-(4,4,4-trifluorobutyl)piperidin-4-yl)-1H-indol-2-yl)-1-methyl-3-(pyrimidin-5-yl)pyridin-2(1H)-one] | 13.1 | 3.5 | 2.7
4 | CC(C)c1c(-c2ccc(=O)n(C)c2)[nH]c2ccc(C3CCN(CC(=O)N(C)C)CC3)cc12 [Example 114, 2-(4-(3-isopropyl-2-(1-methyl-6-oxo-1,6-dihydropyridin-3-yl)-1H-indol-5-yl)piperidin-1-yl)-N,N-dimethylacetamide] | 42.9 | 43.6 | 10.4
5 | CNC(=O)CN1CCC(c2ccc3[nH]c(-c4cc(C#N)c(=O)n(C)c4C)c(C(C)C)c3c2)CC1 [Example 144, 2-(4-(2-(5-cyano-1,2-dimethyl-6-oxo-1,6-dihydropyridin-3-yl)-3-isopropyl-1H-indol-5-yl)piperidin-1-yl)-N-methylacetamide] | 59.9 | 4.7 | 11.4
6 | Cc1c(-c2[nH]c3ccc(C4CCN(C5CCOCC5)CC4)cc3c2C(C)C)nn(C)c(=O)c1C [Example 205, 6-(3-isopropyl-5-(1-(tetrahydro-2H-pyran-4-yl)piperidin-4-yl)-1H-indol-2-yl)-2,4,5-trimethylpyridazin-3(2H)-one] | 501 | 19.8 | 8.71
7 | Cc1c(-c2[nH]c3ccc(C4CCNCC4)cc3c2C(C)C)cc(C#N)c(=O)n1C [Example 23, 5-(3-isopropyl-5-(piperidin-4-yl)-1H-indol-2-yl)-1,6-dimethyl-2-oxo-1,2-dihydropyridine-3-carbonitrile] | 62.8 | 15.1 | 6.27

Next, values leading:

Row | IC50 (human TLR7) [nM] | IC50 (human TLR8) [nM] | IC50 (human TLR9) [µM] | SMILES
8 | 12.5 | 16.9 | 3.32 | Cc1cc(-c2[nH]c3ccc(C4CCN(C(=O)CN(C)C)CC4)cc3c2C(C)C)nn(C)c1=O [Example 294, 6-(5-(1-(dimethylglycyl)piperidin-4-yl)-3-isopropyl-1H-indol-2-yl)-2,4-dimethylpyridazin-3(2H)-one]
9 | 4.8 | 2.3 | 1.82 | Cc1c(-c2[nH]c3ccc(C4CCN(CC5CCOC5)CC4)cc3c2C(C)C)cn(C)c(=O)c1Cl (stereo not drawn) [Example 255, 3-chloro-5-(3-isopropyl-5-(1-((tetrahydrofuran-3-yl)methyl)piperidin-4-yl)-1H-indol-2-yl)-1,4-dimethylpyridin-2(1H)-one]
10 | 67 | 9.3 | 25.4 | Cc1c(-c2[nH]c3ccc(C4CCN(C5COC5)CC4)cc3c2C(C)C)cn(C)c(=O)c1C#N [Example 221, 5-(3-isopropyl-5-(1-(oxetan-3-yl)piperidin-4-yl)-1H-indol-2-yl)-1,4-dimethyl-2-oxo-1,2-dihydropyridine-3-carbonitrile]
11 | 37.9 | 86.8 | 16.7 | COCc1cc(-c2[nH]c3ccc(C4CCN(C5COC5)CC4)cc3c2C(C)C)cn(C)c1=O [Example 346, 5-(3-isopropyl-5-(1-(oxetan-3-yl)piperidin-4-yl)-1H-indol-2-yl)-3-(methoxymethyl)-1-methylpyridin-2(1H)-one]
12 | 49.1 | 54.7 | 5.97 | Cc1cc(-c2[nH]c3ccc(C4CCN(CC(C)(C)O)CC4)cc3c2C(C)C)cn(CC(C)C)c1=O [Example 328, 5-(5-(1-(2-hydroxy-2-methylpropyl)piperidin-4-yl)-3-isopropyl-1H-indol-2-yl)-1-isobutyl-3-methylpyridin-2(1H)-one]
13 | 114 | 61.9 | 9.69 | Cc1nc(-c2[nH]c3ccc(C4CCN(C(=O)CN(C)C)CC4)cc3c2C(C)C)cn(C)c1=O [Example 295, 5-(5-(1-(dimethylglycyl)piperidin-4-yl)-3-isopropyl-1H-indol-2-yl)-1,3-dimethylpyrazin-2(1H)-one]
14 | 34.3 | 18 | 17.5 | CCn1cc(-c2[nH]c3ccc(C4CCN(C5COC5)CC4)cc3c2C(C)C)c(C)c(C)c1=O [Example 209, 1-ethyl-5-(3-isopropyl-5-(1-(oxetan-3-yl)piperidin-4-yl)-1H-indol-2-yl)-3,4-dimethylpyridin-2(1H)-one]
